# Laboratory results reported in ChEMBL document CHEMBL1201862, “PubChem BioAssay data set” (2004).
#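 These data come from cells grown in 96-well plates and exposed to compound for 48 hours at five concentrations. Here, GI50 denotes the concentration required for 50% inhibition of growth.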 The source made the active and inactive calls. Cut-off read from the data, not from the text of the source: active = GI50 up to about 1.1 µM and inactive = higher.
# What was measured:
# Assay in all cases: NCI-60 cell line screen, 48 h
# [1] = system: DLD-1
# [2] = system: NCI-H460
# [3] = system: HCT-15
# [4] = system: SNB-19
# [5] = system: SW-620
# [6] = system: OVCAR-3
# [7] = system: RXF 393
# [8] = system: MOLT-4
# [9] = system: LOX IMVI
# [10] = system: IGROV-1
# [11] = system: HCC 2998
# [12] = system: HCT-116
# [13] = system: SF-295
# [14] = system: SNB-78
# [15] = system: KM12
# [16] = system: SK-OV-3
SMILES,GI50 [1],GI50 [2],GI50 [3] [µM],GI50 [4],GI50 [5],GI50 [6],GI50 [7],GI50 [8],GI50 [9],GI50 [10],GI50 [11],GI50 [12],GI50 [13],GI50 [14],GI50 [15],GI50 [16]
CC(C)(C)C1=CC(=NNC(=S)NCc2ccccc2)C=C(C(C)(C)C)C1=O,59.6 µM (inactive),47.6 µM (inactive),> 100,71 µM (inactive),> 100 µM (inactive),> 100 µM (inactive),78.9 µM (inactive),66.1 µM (inactive),73.8 µM (inactive),> 100 µM (inactive),53.7 µM (inactive),60.5 µM (inactive),86.3 µM (inactive),,,
O=C(O)/C(Cl)=C(\Cl)C(=O)Nc1ccc(Cl)c(Cl)c1Cl,24.5 µM (inactive),21.8 µM (inactive),19.4,15.3 µM (inactive),20.5 µM (inactive),19 µM (inactive),,23.8 µM (inactive),17.4 µM (inactive),20.7 µM (inactive),18.9 µM (inactive),11.8 µM (inactive),18.5 µM (inactive),28.4 µM (inactive),19.4 µM (inactive),19.7 µM (inactive)
Sc1ncnc2c1ncn2C1CCCO1 (stereo not given),89.9 µM (inactive),> 100 µM (inactive),> 100,> 100 µM (inactive),> 100 µM (inactive),22.6 µM (inactive),> 100 µM (inactive),> 100 µM (inactive),37.6 µM (inactive),> 100 µM (inactive),> 100 µM (inactive),55.5 µM (inactive),> 100 µM (inactive),,> 100 µM (inactive),35.8 µM (inactive)
CCCCCCCCCCCCCCCCCCOCC1(COP(=O)([O-])OCC[N+](C)(C)C)CCCO1 (stereo not given),3.65 µM (inactive),1.57 µM (inactive),,3.7 µM (inactive),,4.22 µM (inactive),0.393 µM (active),2.2 µM (inactive),6.43 µM (inactive),2.49 µM (inactive),1.89 µM (inactive),10.1 µM (inactive),2.34 µM (inactive),8.17 µM (inactive),1.39 µM (inactive),14.4 µM (inactive)
NC(=O)COC(=O)c1c(Cl)nc2sccn12,> 100 µM (inactive),> 61.2 µM (inactive),> 40.3,> 100 µM (inactive),> 35.3 µM (inactive),> 43.7 µM (inactive),,> 100 µM (inactive),> 75.5 µM (inactive),> 100 µM (inactive),> 100 µM (inactive),> 31.6 µM (inactive),> 100 µM (inactive),> 100 µM (inactive),> 100 µM (inactive),> 100 µM (inactive)
O=C1CCC2(c3ccccc3)Nc3ccccc3N12 (stereo not given),> 100 µM (inactive),> 100 µM (inactive),> 100,,> 100 µM (inactive),> 100 µM (inactive),> 100 µM (inactive),> 100 µM (inactive),> 100 µM (inactive),> 100 µM (inactive),> 100 µM (inactive),,> 100 µM (inactive),> 100 µM (inactive),> 100 µM (inactive),
O=C1NC2C(O)CCCCC2C12CCCCC2 (stereo not given),> 100 µM (inactive),> 100 µM (inactive),> 100,> 100 µM (inactive),> 100 µM (inactive),> 100 µM (inactive),> 100 µM (inactive),> 100 µM (inactive),> 100 µM (inactive),> 100 µM (inactive),,> 100 µM (inactive),> 100 µM (inactive),> 100 µM (inactive),> 100 µM (inactive),> 100 µM (inactive)
CCOC(=O)C1=C(NC(C)(C)C)OCC1=O,> 100 µM (inactive),> 100 µM (inactive),> 100,> 100 µM (inactive),> 100 µM (inactive),> 100 µM (inactive),,> 100 µM (inactive),> 100 µM (inactive),> 100 µM (inactive),> 100 µM (inactive),> 100 µM (inactive),> 100 µM (inactive),> 100 µM (inactive),> 100 µM (inactive),> 100 µM (inactive)
COc1ccc(OC)c2c(C(=O)O)c(C(C)c3ccccc3)ccc12 (stereo not given),> 100 µM (inactive),> 100 µM (inactive),> 100,> 100 µM (inactive),> 100 µM (inactive),> 100 µM (inactive),> 100 µM (inactive),> 100 µM (inactive),> 100 µM (inactive),> 100 µM (inactive),> 100 µM (inactive),> 100 µM (inactive),> 100 µM (inactive),,> 100 µM (inactive),> 100 µM (inactive)
CC1(C)SCc2nc3ncccc3n21,> 100 µM (inactive),> 100 µM (inactive),> 100,,> 100 µM (inactive),> 100 µM (inactive),> 100 µM (inactive),> 100 µM (inactive),> 100 µM (inactive),> 100 µM (inactive),> 100 µM (inactive),,> 100 µM (inactive),> 100 µM (inactive),> 100 µM (inactive),> 100 µM (inactive)
COc1ccc(Br)c(N/N=C2\CCCNC2=O)c1,> 100 µM (inactive),> 100 µM (inactive),> 100,> 100 µM (inactive),71.1 µM (inactive),> 100 µM (inactive),,69 µM (inactive),> 100 µM (inactive),96.4 µM (inactive),> 100 µM (inactive),> 100 µM (inactive),> 100 µM (inactive),> 100 µM (inactive),> 100 µM (inactive),81.3 µM (inactive)
C=C1C2CCCC1C1(S(C)(=O)=O)CCCCC21O (stereo not given),> 100 µM (inactive),> 100 µM (inactive),> 100,> 100 µM (inactive),> 100 µM (inactive),> 100 µM (inactive),,> 100 µM (inactive),,> 100 µM (inactive),> 100 µM (inactive),> 100 µM (inactive),> 100 µM (inactive),> 100 µM (inactive),> 100 µM (inactive),> 100 µM (inactive)
Cc1cc2c(=O)cc(-c3ccc(C(=O)O)cc3)oc2c(C(=O)O)c1C,> 100 µM (inactive),> 100 µM (inactive),> 100,> 100 µM (inactive),> 100 µM (inactive),> 100 µM (inactive),,> 100 µM (inactive),> 100 µM (inactive),> 100 µM (inactive),> 100 µM (inactive),> 100 µM (inactive),> 100 µM (inactive),> 100 µM (inactive),> 100 µM (inactive),> 100 µM (inactive)
CC(C)c1cccc(C(C)C)c1NC(=O)/C(Cc1nc2ccc(Cl)cc2nc1O)=N\NC(=O)C[N+](C)(C)C,> 100 µM (inactive),> 100 µM (inactive),,> 100 µM (inactive),> 100 µM (inactive),> 100 µM (inactive),> 100 µM (inactive),> 100 µM (inactive),,> 100 µM (inactive),> 100 µM (inactive),> 100 µM (inactive),> 100 µM (inactive),,> 100 µM (inactive),> 100 µM (inactive)
CC(C)(Oc1ccc(C(=O)c2ccc(Cl)cc2)cc1Cl)C(=O)N1CCN(c2ccccc2)CC1,> 100 µM (inactive),> 100 µM (inactive),> 100,> 100 µM (inactive),> 100 µM (inactive),> 100 µM (inactive),,> 100 µM (inactive),> 100 µM (inactive),> 100 µM (inactive),,82.2 µM (inactive),> 100 µM (inactive),> 100 µM (inactive),> 100 µM (inactive),> 100 µM (inactive)
COc1cc2c(c(OC)c1OC)-c1ccc(SC)c(=O)cc1[C@@H](NC(=O)c1ccc(Cl)cc1)CC2,< 0.01 µM (active),< 0.01 µM (active),< 0.01,< 0.01 µM (active),< 0.01 µM (active),< 0.01 µM (active),< 0.01 µM (active),< 0.01 µM (active),< 0.01 µM (active),< 0.01 µM (active),< 0.01 µM (active),< 0.01 µM (active),< 0.01 µM (active),,,
CCC1OCCN1C(C)C (stereo not given),92 µM (inactive),63.1 µM (inactive),81.1,> 100 µM (inactive),> 100 µM (inactive),,> 100 µM (inactive),> 100 µM (inactive),> 100 µM (inactive),> 100 µM (inactive),> 100 µM (inactive),89.9 µM (inactive),> 100 µM (inactive),> 100 µM (inactive),> 100 µM (inactive),> 100 µM (inactive)
O=c1[nH]ccc(CNC23CC4CC(CC(C4)C2)C3)c1O,> 100 µM (inactive),79.3 µM (inactive),41.8,> 100 µM (inactive),> 100 µM (inactive),> 100 µM (inactive),48.4 µM (inactive),55.7 µM (inactive),,> 100 µM (inactive),> 100 µM (inactive),> 100 µM (inactive),78.2 µM (inactive),> 100 µM (inactive),> 100 µM (inactive),> 100 µM (inactive)
C[C@]12Cc3cn[nH]c3C(=O)C1CC[C@@H]1C2CC[C@@]2(C)C1CC[C@@H]2O (stereo not given in full),,> 100 µM (inactive),> 100,> 100 µM (inactive),> 100 µM (inactive),> 100 µM (inactive),> 100 µM (inactive),> 100 µM (inactive),> 100 µM (inactive),> 100 µM (inactive),,> 100 µM (inactive),> 100 µM (inactive),> 100 µM (inactive),> 100 µM (inactive),> 100 µM (inactive)
Cc1ccc(C(=O)NC2CCCCC2)cc1/N=N/N(C)C,> 100 µM (inactive),> 100 µM (inactive),> 100,> 100 µM (inactive),> 100 µM (inactive),> 100 µM (inactive),,,> 100 µM (inactive),> 100 µM (inactive),> 100 µM (inactive),> 100 µM (inactive),> 100 µM (inactive),> 100 µM (inactive),> 100 µM (inactive),
